Assay results taken from PMC13366236 (Acta Pharmaceutica Sinica. B, 2025).
“And” between values parts separate entries of the source, which are not always exact repeats. Identical values can stand only once. Marks after values point to notes of the source that are not given here. Each block holds one molecule with its values, some of them ahead of it.

How the values were obtained:
CYP 1A2 = CYP 1A2 (Homo sapiens, UniProt P05177); assay: CYP enzyme inhibition
PI3Kβ = PI3Kβ (Homo sapiens, UniProt P42338); assay: biochemical
MDA-MB-436 cells = assay: Cell viability CCK-8 assay; type: cell-based; details: Homo sapiens, MDA-MB-436, 48 h, read-out: Antiproliferative IC50 ± SD
PI3Kγ = PI3Kγ (Homo sapiens, UniProt P48736); assay: biochemical
PI3Kγ, sequence (P48736 whole entry): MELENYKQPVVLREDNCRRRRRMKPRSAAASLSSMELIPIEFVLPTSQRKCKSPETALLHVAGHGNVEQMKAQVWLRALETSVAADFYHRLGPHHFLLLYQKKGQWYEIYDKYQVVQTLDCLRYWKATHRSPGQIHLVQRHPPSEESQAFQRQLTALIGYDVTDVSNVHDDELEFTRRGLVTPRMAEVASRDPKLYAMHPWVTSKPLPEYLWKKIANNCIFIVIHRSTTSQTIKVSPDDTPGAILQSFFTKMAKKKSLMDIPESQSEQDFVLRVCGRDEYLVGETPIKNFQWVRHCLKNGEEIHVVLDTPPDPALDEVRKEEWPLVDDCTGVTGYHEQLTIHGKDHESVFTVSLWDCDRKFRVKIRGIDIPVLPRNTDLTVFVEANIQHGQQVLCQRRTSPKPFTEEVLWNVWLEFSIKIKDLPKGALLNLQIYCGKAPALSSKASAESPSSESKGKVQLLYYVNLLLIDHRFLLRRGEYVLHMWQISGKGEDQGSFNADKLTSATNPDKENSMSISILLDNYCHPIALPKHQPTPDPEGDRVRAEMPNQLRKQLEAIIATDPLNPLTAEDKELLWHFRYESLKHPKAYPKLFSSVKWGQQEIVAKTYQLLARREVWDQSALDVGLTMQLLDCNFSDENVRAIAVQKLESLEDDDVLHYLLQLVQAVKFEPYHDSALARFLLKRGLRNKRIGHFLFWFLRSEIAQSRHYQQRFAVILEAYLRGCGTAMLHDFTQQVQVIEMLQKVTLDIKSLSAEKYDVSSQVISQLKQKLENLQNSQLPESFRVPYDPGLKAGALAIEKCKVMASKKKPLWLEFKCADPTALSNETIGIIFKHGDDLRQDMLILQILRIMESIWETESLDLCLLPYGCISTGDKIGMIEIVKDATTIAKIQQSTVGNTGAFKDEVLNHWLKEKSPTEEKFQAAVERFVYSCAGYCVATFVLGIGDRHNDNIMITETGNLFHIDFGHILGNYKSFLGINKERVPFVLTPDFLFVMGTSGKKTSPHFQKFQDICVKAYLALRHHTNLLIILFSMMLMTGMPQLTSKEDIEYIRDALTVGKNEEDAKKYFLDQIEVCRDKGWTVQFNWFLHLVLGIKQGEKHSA

CYP 2C19 = CYP 2C19 (Homo sapiens, UniProt P33261); assay: CYP enzyme inhibition; details: CYP 2C19 IC50
CYP 2C19, sequence (P33261 whole entry): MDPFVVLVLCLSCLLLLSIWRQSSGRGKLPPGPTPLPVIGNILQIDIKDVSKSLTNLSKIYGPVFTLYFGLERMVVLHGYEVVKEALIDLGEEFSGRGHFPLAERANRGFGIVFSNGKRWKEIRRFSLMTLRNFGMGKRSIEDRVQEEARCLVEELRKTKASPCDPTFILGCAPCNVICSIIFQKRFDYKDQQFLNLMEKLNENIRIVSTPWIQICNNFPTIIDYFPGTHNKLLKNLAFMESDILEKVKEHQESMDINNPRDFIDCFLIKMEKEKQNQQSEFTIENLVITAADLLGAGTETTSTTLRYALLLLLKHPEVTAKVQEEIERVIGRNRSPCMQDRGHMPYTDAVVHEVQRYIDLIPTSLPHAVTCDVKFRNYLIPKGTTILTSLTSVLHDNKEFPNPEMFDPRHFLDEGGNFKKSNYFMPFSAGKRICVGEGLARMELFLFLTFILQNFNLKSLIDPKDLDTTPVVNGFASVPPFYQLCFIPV

PI3Kα = PI3Kα (Homo sapiens, UniProt P42336); assay: biochemical
CYP 3A4 = CYP 3A4 (Homo sapiens, UniProt P08684); assay: CYP enzyme inhibition; details: CYP 3A4 IC50
CYP 3A4, sequence (P08684 whole entry): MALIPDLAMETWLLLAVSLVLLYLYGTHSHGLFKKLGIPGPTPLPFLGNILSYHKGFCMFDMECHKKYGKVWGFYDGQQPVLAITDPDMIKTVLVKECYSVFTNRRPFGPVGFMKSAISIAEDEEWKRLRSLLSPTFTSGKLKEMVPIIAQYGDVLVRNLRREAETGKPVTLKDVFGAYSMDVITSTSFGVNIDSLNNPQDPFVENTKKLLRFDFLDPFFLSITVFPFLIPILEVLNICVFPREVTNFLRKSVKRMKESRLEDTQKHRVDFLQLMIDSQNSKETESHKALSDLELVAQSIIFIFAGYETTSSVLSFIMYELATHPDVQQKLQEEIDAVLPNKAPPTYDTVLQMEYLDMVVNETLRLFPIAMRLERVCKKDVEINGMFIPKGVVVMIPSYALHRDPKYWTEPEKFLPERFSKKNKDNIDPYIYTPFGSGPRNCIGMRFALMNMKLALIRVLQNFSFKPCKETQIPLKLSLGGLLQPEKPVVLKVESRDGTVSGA

CYP 2C9 = CYP 2C9 (Homo sapiens, UniProt P11712); assay: CYP enzyme inhibition; details: CYP 2C9 IC50
CYP 2C9, sequence (P11712 whole entry): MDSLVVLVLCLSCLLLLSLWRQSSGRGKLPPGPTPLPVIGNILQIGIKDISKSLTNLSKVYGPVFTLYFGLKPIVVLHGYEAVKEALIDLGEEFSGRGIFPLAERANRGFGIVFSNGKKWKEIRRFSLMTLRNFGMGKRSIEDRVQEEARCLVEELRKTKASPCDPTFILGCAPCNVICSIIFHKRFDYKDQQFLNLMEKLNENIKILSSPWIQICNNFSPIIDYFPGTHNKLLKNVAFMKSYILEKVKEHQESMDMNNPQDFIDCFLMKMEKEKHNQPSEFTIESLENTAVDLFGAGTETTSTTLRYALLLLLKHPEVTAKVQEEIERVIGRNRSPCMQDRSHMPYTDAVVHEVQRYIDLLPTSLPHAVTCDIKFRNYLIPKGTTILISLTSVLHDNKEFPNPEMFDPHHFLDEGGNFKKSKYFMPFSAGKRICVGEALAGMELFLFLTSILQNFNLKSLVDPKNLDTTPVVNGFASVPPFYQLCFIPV

PI3Kδ = PI3Kδ (Homo sapiens, UniProt O00329); assay: biochemical
PI3Kδ, sequence (O00329 whole entry): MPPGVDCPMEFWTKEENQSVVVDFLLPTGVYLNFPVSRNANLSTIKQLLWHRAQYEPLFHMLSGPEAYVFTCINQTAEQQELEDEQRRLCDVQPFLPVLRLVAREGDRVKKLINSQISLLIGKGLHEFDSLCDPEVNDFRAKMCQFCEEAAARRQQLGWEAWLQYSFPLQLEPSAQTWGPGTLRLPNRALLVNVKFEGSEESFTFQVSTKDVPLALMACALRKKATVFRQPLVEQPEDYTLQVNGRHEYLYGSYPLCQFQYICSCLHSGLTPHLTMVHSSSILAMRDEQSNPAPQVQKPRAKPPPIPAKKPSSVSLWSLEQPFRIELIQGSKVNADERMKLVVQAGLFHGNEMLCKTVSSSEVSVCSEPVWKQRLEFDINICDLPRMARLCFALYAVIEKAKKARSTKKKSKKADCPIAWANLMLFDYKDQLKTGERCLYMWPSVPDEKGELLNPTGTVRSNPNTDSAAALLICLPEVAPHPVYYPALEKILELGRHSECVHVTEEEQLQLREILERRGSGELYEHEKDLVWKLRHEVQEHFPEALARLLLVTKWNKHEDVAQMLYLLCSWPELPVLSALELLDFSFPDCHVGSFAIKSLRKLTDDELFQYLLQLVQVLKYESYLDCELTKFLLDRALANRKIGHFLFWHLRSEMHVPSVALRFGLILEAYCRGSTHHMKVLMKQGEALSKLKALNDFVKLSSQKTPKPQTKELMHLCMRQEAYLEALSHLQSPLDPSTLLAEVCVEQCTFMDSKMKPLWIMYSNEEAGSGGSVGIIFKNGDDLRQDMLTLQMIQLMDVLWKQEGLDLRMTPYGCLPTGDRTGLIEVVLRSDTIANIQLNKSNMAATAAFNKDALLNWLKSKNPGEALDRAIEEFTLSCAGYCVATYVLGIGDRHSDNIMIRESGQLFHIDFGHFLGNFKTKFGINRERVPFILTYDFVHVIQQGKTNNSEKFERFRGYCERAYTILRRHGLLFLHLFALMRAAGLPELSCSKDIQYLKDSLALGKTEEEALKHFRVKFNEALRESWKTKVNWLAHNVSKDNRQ
PI3Kδ, sequence (P27986 whole entry partner): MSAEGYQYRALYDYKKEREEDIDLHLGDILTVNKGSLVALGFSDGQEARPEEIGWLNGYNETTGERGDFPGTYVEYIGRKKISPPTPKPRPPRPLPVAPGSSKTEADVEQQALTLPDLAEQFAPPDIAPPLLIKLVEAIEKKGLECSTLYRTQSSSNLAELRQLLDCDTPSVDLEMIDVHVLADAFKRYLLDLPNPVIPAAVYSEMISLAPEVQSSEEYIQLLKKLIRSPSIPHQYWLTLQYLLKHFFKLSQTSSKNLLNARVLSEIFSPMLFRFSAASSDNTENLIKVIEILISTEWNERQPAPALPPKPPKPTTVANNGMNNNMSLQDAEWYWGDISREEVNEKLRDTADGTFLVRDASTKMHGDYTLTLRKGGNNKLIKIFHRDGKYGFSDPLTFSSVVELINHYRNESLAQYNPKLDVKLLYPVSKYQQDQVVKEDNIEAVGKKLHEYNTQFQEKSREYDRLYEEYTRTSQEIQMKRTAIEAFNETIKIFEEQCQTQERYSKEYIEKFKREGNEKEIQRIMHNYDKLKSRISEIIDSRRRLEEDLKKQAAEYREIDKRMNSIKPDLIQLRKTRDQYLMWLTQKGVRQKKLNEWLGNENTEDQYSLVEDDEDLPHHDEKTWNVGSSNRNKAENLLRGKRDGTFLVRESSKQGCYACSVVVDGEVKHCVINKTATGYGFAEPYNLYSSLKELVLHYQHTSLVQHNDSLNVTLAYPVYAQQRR

CYP 2D6 = CYP 2D6 (Homo sapiens, UniProt P10635); assay: CYP enzyme inhibition; details: CYP 2D6 IC50
HCT-116 cells = assay: Cell viability CCK-8 assay; type: cell-based; details: Homo sapiens, HCT-116, 48 h, read-out: Antiproliferative IC50 ± SD
mTOR [1] = target: T1, mTOR (Homo sapiens, UniProt P42345); assay: mTOR kinase inhibition, Lance Ultra assay; type: biochemical; details: for IC50: mTOR, IC50, mean ± SD of triplicate measurements
MDA-MB-231 cells [2] = assay: Cell viability CCK-8 assay; type: cell-based, human; details: for IC50: Homo sapiens, MDA-MB-231, 48 h, read-out: Antiproliferative IC50 ± SD
MCF-7 cells = assay: Cell viability CCK-8 assay; type: cell-based; details: Homo sapiens, MCF7, 48 h, read-out: Antiproliferative IC50 ± SD
[3] = Pharmacokinetic study in SD rats; type: in vivo
[4] = tested on: cGAS/STING signaling pathway; assay: Western blot of cGAS/STING signaling pathway in MDA-MB-231 cells; type: cell-based, human; details: MDA-MB-231, 0.5‒2.0 μmol/L, 24 h
MDA-MB-231 cells [5] = assay: Transwell invasion assay; type: cell-based, human; details: MDA-MB-231, concentration-dependent
[6] = tested on: PI3K/Akt/mTOR signaling pathway; assay: Western blot of PI3K/Akt/mTOR signaling pathway in MDA-MB-231 cells; type: cell-based, human; details: MDA-MB-231, 0.5, 1, 2 μmol/L, 24 h
MDA-MB-231 cells [7] = assay: Colony formation assay; type: cell-based, human; details: MDA-MB-231, 0.05, 0.1, 0.5 μmol/L
MDA-MB-231 xenograft = MDA-MB-231 xenograft tumor model; type: in vivo, female BALB/c nude mice; details: i.v., Day 15; for Tumor size: mean ± SEM
PI3KC2g(h) = PI3KC2g(h) (Homo sapiens, UniProt O75747); assay: Kinase profiling; type: binding; details: 1.0 μmol/L
mTOR [8] = target: T1, mTOR; assay: Cellular thermal shift assay; type: cell-based; details: MDA-MB-231 cells, 5 μmol/L, 8 h
MDA-MB-231 cells [9] = assay: Autophagy induction, Western blot and LC3B immunofluorescence; type: cell-based, human; details: MDA-MB-231, 0.5, 1, 2 μmol/L, 24 h
MDA-MB-231 cells [10] = assay: Wound healing; type: cell-based, human; details: MDA-MB-231, 0.25, 0.5, 1.0 μmol/L, concentration-dependent
MDA-MB-468 cells = assay: Cell viability CCK-8 assay; type: cell-based; details: Homo sapiens
MDA-MB-231 cells [11] = assay: Apoptosis, Annexin V-AF647/7AAD flow cytometry; type: cell-based, human; details: 24 h
[12] = tested on: panel of 200 human kinases; assay: Kinase-specificity profiling; type: binding; details: 1.0 μmol/L
[13] = Sprague-Dawley, rat, plasma, iv, 5 mg/kg
[14] = Sprague-Dawley, rat, plasma, po, 20 mg/kg

CYP 1A2, sequence (P05177 whole entry): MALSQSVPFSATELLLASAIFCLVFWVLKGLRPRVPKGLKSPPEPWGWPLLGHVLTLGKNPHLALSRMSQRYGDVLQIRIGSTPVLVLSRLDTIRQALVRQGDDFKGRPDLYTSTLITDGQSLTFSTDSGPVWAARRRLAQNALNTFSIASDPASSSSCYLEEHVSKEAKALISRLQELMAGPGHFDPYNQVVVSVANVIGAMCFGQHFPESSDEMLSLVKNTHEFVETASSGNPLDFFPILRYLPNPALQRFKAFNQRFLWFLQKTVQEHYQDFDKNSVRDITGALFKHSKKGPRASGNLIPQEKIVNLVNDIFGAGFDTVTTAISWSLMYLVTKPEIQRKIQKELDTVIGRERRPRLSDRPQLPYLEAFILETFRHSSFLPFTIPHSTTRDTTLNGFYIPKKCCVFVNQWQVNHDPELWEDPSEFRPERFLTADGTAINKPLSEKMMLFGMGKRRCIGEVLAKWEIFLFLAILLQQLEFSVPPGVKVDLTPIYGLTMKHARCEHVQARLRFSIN

IC50 (CYP 1A2): > 50000 nM | IC50 (PI3Kβ): > 10000 nM | IC50 (MDA-MB-436 cells): 498 ± 18.1 nM | IC50 (PI3Kγ): > 10000 nM | IC50 (CYP 2C19): 680 nM | IC50 (PI3Kα): > 10000 nM | IC50 (CYP 3A4): 7860 nM | IC50 (CYP 2C9): 140 nM | IC50 (PI3Kδ): > 10000 nM | IC50 (CYP 2D6): 5520 nM | IC50 (HCT-116 cells): 1510 ± 361 nM | IC50 (mTOR [1]): 45.2 ± 8.8 nM | fold more potent than the lead compound MT-1 (mTOR IC50) (mTOR [1]; vs MT-1): 34 fold | IC50 (MDA-MB-231 cells [2]): 337 ± 12.8 nM | IC50 (MCF-7 cells): 118 ± 63.6 nM
Structure (SMILES): NCCC(=O)Nc1ccccc1/N=c1\cc(-c2ccc3nc(N)oc3c2)oc2ccccc12 [Compound 12a, (E)-3-amino-N-(2-((2-(2-aminobenzo[d]oxazol-6-yl)-4H-chromen-4-ylidene)amino)phenyl)propanamide]

IC50 (MDA-MB-436 cells): 566 ± 9.1 nM | IC50 (HCT-116 cells): 900.5 ± 5.5 nM | IC50 (mTOR [1]): 473 ± 42.4 nM | IC50 (MDA-MB-231 cells [2]): 104 ± 3.3 nM | IC50 (MCF-7 cells): 1316 ± 6.4 nM
Structure (SMILES): CNCCC(=O)Nc1ccccc1/N=c1\cc(-c2ccc3nc(N)oc3c2)oc2ccccc12 [Compound 12c, (E)-N-(2-((2-(2-aminobenzo[d]oxazol-6-yl)-4H-chromen-4-ylidene)amino)phenyl)-3-(methylamino)propanamide]

IC50 (HCT-116 cells): 313200 ± 5.7 nM | IC50 (mTOR [1]): 165 ± 8.1 nM | IC50 (MDA-MB-231 cells [2]): 285 ± 425 nM | IC50 (MCF-7 cells): 1487 ± 2.8 nM
Structure (SMILES): Nc1nc2ccc(-c3c/c(=N\c4ccccc4NC(=O)C4CCNC4)c4ccccc4o3)cc2o1 (stereo not shown) [Compound 12i, (E)-N-(2-((2-(2-aminobenzo[d]oxazol-6-yl)-4H-chromen-4-ylidene)amino)phenyl)pyrrolidine-3-carboxamide]

Cl ([3]; SD rats, i.g. 20 mg/kg): 0.75 ± 0.07 mL/min/kg | Vss ([3]; SD rats, i.g. 20 mg/kg): 15.04 ± 4.24 L/kg | AUC(0-inf) [3, 13]: 29900 ng·h/mL | AUC(0-t) [3, 13]: 28800 ng·h/mL | Cmax [3, 13]: 29200 ng/mL | MRT last [3, 13]: 2.93 ± 0.16 h | Tmax [3, 13]: 0.05 h | Vd [3, 13]: 4.43 ± 0.93 L/kg | clearance [3, 13]: 2.83 mL/min/kg | half-life [3, 13]: 14.1 ± 3.35 h | bioavailability ([3]; Sprague-Dawley, rat, plasma, oral, 20 mg/kg): 4.75% | AUC(0-inf) [3, 14]: 5680 ± 501 ng·h/mL | AUC(0-t) [3, 14]: 5300 ± 514 ng·h/mL | Cmax [3, 14]: 1150 ± 174 ng/mL | MRT last [3, 14]: 5.44 ± 0.2 h | Tmax [3, 14]: 1.4 ± 0.55 h | half-life [3, 14]: 14 ± 4.11 h | IC50 (CYP 1A2): > 50000 nM | IC50 (PI3Kβ): > 10000 nM | IC50 (MDA-MB-436 cells): 148 ± 1.7 nM | IC50 (PI3Kγ): > 10000 nM | IC50 (CYP 2C19): > 50000 nM | IC50 (PI3Kα): > 10000 nM | IC50 (CYP 3A4): > 50000 nM | IC50 (CYP 2C9): > 50000 nM | IC50 (PI3Kδ): > 10000 nM | IC50 (CYP 2D6): 19900 nM | binding to PI3KC2γ (PI3KC2g(h)): weak binding | target engagement of mTOR in CETSA (mTOR [8]): directly interacts with mTOR protein | IC50 (HCT-116 cells): 555 ± 315 nM | IC50 (mTOR [1]): 49.4 ± 17.1 nM | IC50 (MDA-MB-231 cells [2]): 66.5 ± 1.5 nM | IC50 (MDA-MB-468 cells; MDA-MB-468, read-out: Antiproliferative IC50): 148 nM | IC50 (MCF-7 cells): 328 ± 5.4 nM | binding activity to the panel of kinases [12]: no obvious binding activity
Structure (SMILES): COc1ccc2oc(-c3ccc4nc(N)oc4c3)c/c(=N\c3ccccc3NC(=O)CCN)c2c1 [Compound 12j, (E)-3-amino-N-(2-((2-(2-aminobenzo[d]oxazol-6-yl)-6-methoxy-4H-chromen-4-ylidene)amino)phenyl)propanamide]
phosphorylation of STING(Ser366), TBK(Ser172), IRF3(Ser366) [4]: concentration-dependent increase | invasion (MDA-MB-231 cells [5]): significantly inhibit the invasion | expression of p-P70S6K(Thr389), p-Akt(Ser473), p-4EBP1(Thr37/46) [6]: significantly downregulated in a concentration-dependent manner | colony formation ability (MDA-MB-231 cells [7]): significantly inhibited | T/C (MDA-MB-231 xenograft; 10 mg/kg, Q3D × 6): 61.36% | TGI (MDA-MB-231 xenograft; 10 mg/kg, Q3D × 6, listed as MT-44): 38.64% and 38.64 ^d % | Tumor size (MDA-MB-231 xenograft; 10 mg/kg, Q3D × 6): 210.95 ± 33.18 mm^3 | T/C (MDA-MB-231 xenograft; 20 mg/kg, Q3D × 6): 27.27% | TGI (MDA-MB-231 xenograft; 20 mg/kg, Q3D × 6, listed as MT-44): 72.73% and 72.73 ^e % | Tumor size (MDA-MB-231 xenograft; 20 mg/kg, Q3D × 6): 115.97 ± 20.63 mm^3 | fold more potent antiproliferative effect than Doxorubicin (MDA-MB-231 cells [2]; MDA-MB-231): 1.1 fold | fold more potent antiproliferative effect than Everolimus (MDA-MB-231 cells [2]; MDA-MB-231): 34.4 fold | autophagy induction (MDA-MB-231 cells [9]): significantly enhanced autophagy induction | anti-migration effect (MDA-MB-231 cells [10]): significantly inhibit the migration | inhibition at 1 µM (MDA-MB-468 cells; MDA-MB-468, read-out: Inhibition rate @ 1.0 μmol/L): 74% | percentage of total apoptotic cells (MDA-MB-231 cells [11]; MDA-MB-231, 0.5 μmol/L): 4.73% | percentage of total apoptotic cells (MDA-MB-231 cells [11]; MDA-MB-231, 1 μmol/L): 9.43% | percentage of total apoptotic cells (MDA-MB-231 cells [11]; MDA-MB-231, 2 μmol/L): 22.23%

IC50 (MDA-MB-436 cells): 112 ± 62.3 nM | IC50 (HCT-116 cells): 307.9 ± 2.2 nM | IC50 (mTOR [1]): 166 ± 6.3 nM | IC50 (MDA-MB-231 cells [2]): 125 ± 5.9 nM | IC50 (MCF-7 cells): 211 ± 87.7 nM
Structure (SMILES): NCCC(=O)Nc1ccccc1/N=c1\cc(-c2ccc3nc(N)oc3c2)oc2ccc(F)cc12 [Compound 12k, (E)-3-amino-N-(2-((2-(2-aminobenzo[d]oxazol-6-yl)-6-fluoro-4H-chromen-4-ylidene)amino)phenyl)propanamide]

IC50 (MDA-MB-436 cells): > 10000 nM | IC50 (HCT-116 cells): > 10000 nM | IC50 (mTOR [1]): 40.2 ± 1 nM | IC50 (MDA-MB-231 cells [2]): > 10000 nM | IC50 (MCF-7 cells): > 10000 nM
Structure (SMILES): NCCC(=O)Nc1ccccc1/N=c1\cc(-c2ccc3nc(N)oc3c2)oc2cc(O)ccc12 [Compound 12m, (E)-3-amino-N-(2-((2-(2-aminobenzo[d]oxazol-6-yl)-7-hydroxy-4H-chromen-4-ylidene)amino)phenyl)propanamide]

IC50 (HCT-116 cells): 1570 ± 132 nM | IC50 (mTOR [1]): 26.3 ± 0.2 nM | fold more potent than 12a (mTOR IC50) (mTOR [1]; vs 12a): 1.72 fold | IC50 (MDA-MB-231 cells [2]): 1770 ± 473 nM | IC50 (MCF-7 cells): 547 ± 679 nM
Structure (SMILES): NCCC(=O)Nc1ccccc1/N=c1\cc(-c2ccc3nc(N)oc3c2)oc2ccc(O)cc12 [Compound 12n, (E)-3-amino-N-(2-((2-(2-aminobenzo[d]oxazol-6-yl)-6-hydroxy-4H-chromen-4-ylidene)amino)phenyl)propanamide]

IC50 (MDA-MB-231 cells [2]): 75.6 nM
Structure (SMILES): COc1cccc2c1C(=O)c1c(O)c3c(c(O)c1C2=O)C[C@@](O)(C(=O)CO)C[C@@H]3O[C@H]1C[C@H](N)[C@H](O)[C@H](C)O1 [Doxorubicin, reference compound]
T/C (MDA-MB-231 xenograft; 2.5 mg/kg, Q7D × 2): 31.82% | TGI (MDA-MB-231 xenograft; 2.5 mg/kg, Q7D × 2): 68.18 ^d % | Tumor size (MDA-MB-231 xenograft; 2.5 mg/kg, Q7D × 2): 115.17 ± 32.95 mm^3

IC50 (MDA-MB-436 cells): > 10000 nM | IC50 (HCT-116 cells): > 10000 nM | IC50 (MDA-MB-231 cells [2]): > 10000 nM | IC50 (MCF-7 cells): 2790 ± 346 nM
Structure (SMILES): Oc1cccc(-c2nc(N3CCOCC3)c3oc4ncccc4c3n2)c1 [PI-103, reference compound]
colony formation ability (MDA-MB-231 cells [7]): significantly inhibited | T/C (MDA-MB-231 xenograft; 20 mg/kg, Q3D × 6): 61.36% | TGI (MDA-MB-231 xenograft; 20 mg/kg, Q3D × 6): 38.64 ^d % | Tumor size (MDA-MB-231 xenograft; 20 mg/kg, Q3D × 6): 256.59 ± 40.06 mm^3 | anti-migration effect (MDA-MB-231 cells [10]): significantly inhibit the migration | percentage of total apoptotic cells (MDA-MB-231 cells [11]; MDA-MB-231, 2 μmol/L): 4.47%
